Assay results reported in US20170121402A1, “ORAL COMPOSITION OF ANTI-TNF ALPHA ANTIBODIES” (Laboratoire Français du Fractionnement et des …, priority 2014, published 2017).

Tested on: interleukin-8 (IL-8) secretion by Caco-2 cells
Assay: Anti-inflammatory effect on the Caco-2 line: IL-8 secretion after IL-1 beta activation, ELISA
Assay type: cell-based, human
Settings: differentiated Caco-2 cells (14 days), 24 h preculture with test agent, then 1 ng/ml IL-1 beta for 12 hours
Source text: Caco-2 cells, a colon cancer cell line, are an established cell model of the human intestinal epithelium (Pinto et al., 1983, Biol. Cell, 47, 323-330). These cells secrete interleukin-8 (IL-8), which is one of the major interleukins in the pathogenesis of inflammatory bowel diseases, after activation by interleukin-1 beta (IL-1 beta).
The inventors used the Caco-2 cell line as a model of epithelial cells, and evaluated the effect of compositions according to the invention on interleukin-8 (IL-8) secretion by these cells after activation by interleukin-1 beta (IL-1 beta).
To that end, Caco-2 cells, deposited in 24well plates, were cultured for 14 days until the cells were confluent and in a stable differentiation state. On day 14, the cells were precultured in the presence of caprylic acid, transgenically-produced anti-TNF antibody (adalimumab), and a combination of the two. Twenty-four hours later, the cells were stimulated with 1 ng/ml IL-1 beta for 12 hours. IL-8 levels present in the culture supernatants were measured by ELISA.

## adalimumab [anti-TNF antibody]
  IL-8 levels present in the culture supernatants (IL-8 secretion): induces a decrease in IL-8 levels
